Reference: BindingDB's records for doi:10.1021/cb500828m (Vanderbilt University, 2015)

Target: T1, Phospholipase D1 (Homo sapiens, UniProt Q13393)
T1 sequence (Q13393 whole entry): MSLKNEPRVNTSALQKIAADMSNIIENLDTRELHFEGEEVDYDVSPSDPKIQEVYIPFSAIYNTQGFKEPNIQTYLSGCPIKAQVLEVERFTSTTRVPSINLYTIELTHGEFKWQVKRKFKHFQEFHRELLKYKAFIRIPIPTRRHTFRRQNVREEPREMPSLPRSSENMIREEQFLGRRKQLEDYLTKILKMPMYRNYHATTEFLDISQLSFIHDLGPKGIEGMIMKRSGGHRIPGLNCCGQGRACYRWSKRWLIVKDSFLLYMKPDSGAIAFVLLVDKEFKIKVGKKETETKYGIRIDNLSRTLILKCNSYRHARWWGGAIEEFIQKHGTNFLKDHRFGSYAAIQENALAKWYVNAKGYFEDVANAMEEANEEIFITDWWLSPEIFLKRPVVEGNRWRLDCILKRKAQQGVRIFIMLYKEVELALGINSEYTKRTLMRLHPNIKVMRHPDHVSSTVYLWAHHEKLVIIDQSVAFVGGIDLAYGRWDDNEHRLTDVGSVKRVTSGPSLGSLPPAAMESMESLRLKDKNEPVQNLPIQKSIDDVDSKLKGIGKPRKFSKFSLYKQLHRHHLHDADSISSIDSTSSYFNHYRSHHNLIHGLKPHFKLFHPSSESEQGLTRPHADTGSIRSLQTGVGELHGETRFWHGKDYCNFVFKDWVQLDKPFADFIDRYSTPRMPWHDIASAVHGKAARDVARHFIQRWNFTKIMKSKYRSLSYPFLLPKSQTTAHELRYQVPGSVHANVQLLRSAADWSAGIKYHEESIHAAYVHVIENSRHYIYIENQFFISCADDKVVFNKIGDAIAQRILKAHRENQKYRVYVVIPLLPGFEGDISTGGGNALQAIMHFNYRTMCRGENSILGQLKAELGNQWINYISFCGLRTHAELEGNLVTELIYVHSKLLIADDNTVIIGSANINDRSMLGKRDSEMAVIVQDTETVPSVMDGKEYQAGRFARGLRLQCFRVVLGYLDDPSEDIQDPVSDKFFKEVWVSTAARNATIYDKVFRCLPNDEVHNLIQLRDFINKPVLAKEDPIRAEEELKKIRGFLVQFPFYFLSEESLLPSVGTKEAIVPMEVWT
Test: In vivo Deuterated 1-Butanol PLD Assay
Description: Cells were seeded into 12-well tissue culture plates to reach 90% confluence at the time of assay. All cell types, aside from the HEK293-gfpPLD2 cells, were serum-starved 18 h prior to experiment in DMEM, 0.5% FBS, 1% AA. Cells werepretreated in the presence of test compound (50 μM to 5 nM) or DMSO (vehicle control) in DMEM for 5 min at rt. After pretreatment, media was removed, and cells were treated with DMEM + 1 μM PMA + 0.3% 1-butanol-d10, and either test compound, DMSO vehicle control, or DMEM alone for 30 min at 37 °C. HEK293-gfpPLD2 cells were treated in the presence of DMEM + 0.3% 1-butanol-d10 and either test compound or DMSO but were not stimulated with PMA. After treatment, samples were extracted, and 1,2-dihexanoyl-snglycero-3-phosphomethanol ([…]) was added as an internal standard. The lipids were isolated, the solvent was evaporated, and the resulting lipid film was resuspended in MS solvent (9:1 methanol/chloroform + 1 μL of NH4OH). Samples were

Oc1ccc(-c2sc3cc(O)ccc3c2-c2ccc(OCCN3CCCCC3)cc2)cc1 [Desketoraloxifene (10)]
IC50: 6.1 µM
